Data taken from PubChem BioAssay (NCI).
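Test compounds were applied to cells in 96-well plates for 48 hours at 5 doses. At the TGI there is no net growth.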

Tests used:
Test in all cases: NCI-60 cell line screen, 48 h
NCI-H460 lung = system: NCI-H460 lung
M14 melanoma = system: M14 melanoma
HCC-2998 colon = system: HCC-2998 colon
HT29 colon = system: HT29 colon
SK-MEL-5 melanoma = system: SK-MEL-5 melanoma
SK-MEL-2 melanoma = system: SK-MEL-2 melanoma
MALME-3M melanoma = system: MALME-3M melanoma
ACHN renal = system: ACHN renal
HOP-92 NSCLC = system: HOP-92 NSCLC
NCI-H522 lung = system: NCI-H522 lung
OVCAR-3 ovarian = system: OVCAR-3 ovarian
DU-145 prostate = system: DU-145 prostate
HOP-62 NSCLC = system: HOP-62 NSCLC
786-0 renal = system: 786-0 renal
CAKI-1 renal = system: CAKI-1 renal
CCRF-CEM leukemia = system: CCRF-CEM leukemia
K-562 leukemia = system: K-562 leukemia

SMILES	TGI (NCI-H460 lung)	TGI (M14 melanoma)	TGI (HCC-2998 colon)	TGI (HT29 colon)	TGI (SK-MEL-5 melanoma)	TGI (SK-MEL-2 melanoma)	TGI (MALME-3M melanoma)	TGI (ACHN renal)	TGI (HOP-92 NSCLC)	TGI (NCI-H522 lung)	TGI (OVCAR-3 ovarian)	TGI (DU-145 prostate)	TGI (HOP-62 NSCLC)	TGI (786-0 renal)	TGI (CAKI-1 renal)	TGI (CCRF-CEM leukemia)	TGI (K-562 leukemia)
Fc1ccc2nc3n(c2c1)C(c1c(F)cccc1F)SC3 (stereo unspecified)	> 100 µM	> 100 µM	> 100 µM	> 100 µM	> 100 µM	> 100 µM	> 100 µM	> 100 µM	> 100 µM	> 100 µM	> 100 µM	> 100 µM	> 100 µM	> 100 µM	> 100 µM	–	–
COC(=O)C1CCC(=O)N1CN(C(C)=O)c1ccccc1 (stereo unspecified)	> 100 µM	> 100 µM	–	> 100 µM	> 100 µM	> 100 µM	> 100 µM	> 100 µM	> 100 µM	> 100 µM	> 100 µM	> 100 µM	> 100 µM	> 100 µM	> 100 µM	> 100 µM	> 100 µM
COc1ccccc1NC(=O)/C(Cc1nc2ccc([N+](=O)[O-])cc2[nH]c1=O)=N\NC(=O)C[N+](C)(C)C	> 100 µM	> 100 µM	> 100 µM	> 100 µM	> 100 µM	> 100 µM	–	> 100 µM	> 100 µM	> 100 µM	> 100 µM	> 100 µM	> 100 µM	> 100 µM	> 100 µM	94.5 µM	–
COc1cc2cc(C(=O)N3CC(CCl)c4ccc(O)cc43)[nH]c2c(OC)c1OC (stereo unspecified)	–	0.12 µM	0.00936 µM	0.0107 µM	0.000396 µM	0.00468 µM	0.0178 µM	0.000211 µM	–	0.00168 µM	0.015 µM	0.661 µM	–	0.121 µM	0.0201 µM	> 100 µM	–
CC1(CCC2C=CCC2)CCCNC1=S (stereo unspecified)	> 10 µM	> 10 µM	> 10 µM	> 10 µM	> 10 µM	> 10 µM	> 10 µM	> 10 µM	> 10 µM	–	> 10 µM	> 10 µM	> 10 µM	> 10 µM	–	> 10 µM	> 10 µM
COc1cc2c(c(OC)c1OC)C(=O)[C@H](O)[C@H]2NC(N)=O	> 100 µM	> 100 µM	> 100 µM	> 100 µM	> 100 µM	–	> 100 µM	> 100 µM	–	> 100 µM	> 100 µM	> 100 µM	> 100 µM	> 100 µM	> 100 µM	> 100 µM	> 100 µM
CCC1(CC)CC(=NNS(=O)(=O)c2ccc(C)cc2)C1	> 100 µM	> 100 µM	> 100 µM	> 100 µM	> 100 µM	> 100 µM	> 100 µM	> 100 µM	> 100 µM	> 100 µM	> 100 µM	> 100 µM	–	> 100 µM	> 100 µM	> 100 µM	> 100 µM
NNC(=O)c1ccc(-n2nnc(C(=O)NN)c2C(=O)NN)cc1	> 100 µM	> 100 µM	> 100 µM	> 100 µM	> 100 µM	> 100 µM	> 100 µM	> 100 µM	> 100 µM	–	> 100 µM	> 100 µM	> 100 µM	> 100 µM	> 100 µM	> 100 µM	> 100 µM
